Measurements taken from patent publication US20080118449A1, “COSMETIC FORMULATIONS OF PICEATANNOL AND RETINOIDS AND METHODS OF USE THEREOF” (priority 2006, published 2008).

Columns and labels:
[1] = system: skin wrinkles on the face of female subjects; assay: Skin wrinkle improvement by computer aided laser profilometry (Skin Visiometer, silicone replicas); assay type: in vivo, human; conditions: 9 weeks
Procedure: The effects of the cosmetic compositions of Example 1 and Comparative Example 1 and 2 on skin wrinkle improvement were determined by computer aided laser profilometry.
It involved sixteen female subjects of 30 years and over. The cosmetic compositions of Example 1 and Comparative Examples 1 and 2 were applied on the face (area of 2×2 cm2) of the test subjects, once a day with dose of 0.05 g for 9 weeks. Then, replicas of their skin wrinkles were prepared using white plastic silicon precision moulding compound. The changes in the skin wrinkles of the replicas were detected with Skin Visiometer (SV600 manufactured by Courage+Khazaka electronic GmbH, Germany). Three-dimensional images of the replicas were analyzed with a CCD camera. The skin wrinkle improvement effect was determined as average roughness of the wrinkles (Rz) according to the following numerical formula I:
Rz=(R1+R2+ . . . +Rn−1+Rn)/Number of wrinkles(n) (I)
Wherein, Rn is the roughness of each wrinkle and n is the number of the wrinkles.

[2] = system: skin of the upper outer arm of 16 human volunteers; assay: Skin irritant potential, modified human 4-h patch test; assay type: in vivo
Procedure: The skin irritant potential of the cosmetic compositions of Example 1 and Comparative Example 1 and 2 were determined using a modification of the human 4-h patch test (Basketter D A, et al., Food Chem Toxicol 1997,:35: 845-852), involving application of 0.2 ml of the composition to be tested on a 25 mm plain Hill Top Chamber containing a Webril pad (Hill Top Companies, Cincinatti, Ohio, USA) to the skin of the upper outer arm of 16 human volunteers. Both upper arms of the panelist were used. Patches were applied in a balanced random order.
After 24 hours, the patches were removed and then the test areas were marked with a marking pen. After each lapse of 24, 48 and 72 hours, the test areas were observed and treatment sites were assessed for the presence of irritation using a 4 point scale (Table 2) at 24, 48 and 72 h after patch removal

[3] = emulsion (lotion) type formulation
[4] = lotion type cosmetic preparation, 0.20 wt% with 0.20 wt% retinyl palmitate
[5] = solution type formulation, 0.2 wt% with 0.2 wt% retinyl palmitate

Structure (SMILES)	effect on retinoid wrinkle improvement [1, 3]	efficiency relative to piceatannol on wrinkle improvement ([1]; emulsion type cosmetic preparations)	effect on retinoid wrinkle improvement ([1]; solution type formulation)	effect of addition on irritancy of retinyl palmitate [2, 4]	effect of addition on irritancy of retinyl palmitate [2, 5]
OC[C@H]1O[C@@H](Oc2cc(O)cc(/C=C/c3ccc(O)c(O)c3)c2)[C@H](O)[C@@H](O)[C@@H]1O (relative stereo) [astringin, trans-(3,5,3′,4′-tetrahydroxystilbene)-3-O-beta-d-glucopyranoside]	enhances the effect of retinol on wrinkle improvement	seems to be m ore efficient than piceatannol	enhances the effect of retinol on wrinkle improvement	clearly reduced the irritancy of retinyl palmitate	clearly reduced the irritancy of retinyl palmitate
Oc1cc(O)cc(/C=C/c2ccc(O)c(O)c2)c1 [piceatannol, trans-3,4,3′,5′-tetrahydroxystilbene]	enhances the effect of retinol on wrinkle improvement	–	enhances the effect of retinol on wrinkle improvement	clearly reduced the irritancy of retinyl palmitate	clearly reduced the irritancy of retinyl palmitate
